{
  "source": "paper PMC10683025",
  "about": "“Discovery of a Hydroxylamine-Based Brain-Penetrant EGFR Inhibitor for Metastatic Non-Small-Cell Lung Cancer” (Journal of Medicinal Chemistry, 2023)",
  "key": {"[1]": {"assay": "Metabolic stability in liver microsomes", "assay_type": "in vitro ADME, Sprague-Dawley rat", "conditions": "rat LM", "protocol": "(§3) Microsome stability was assessed in duplicate (n = 2) in the presence and absence of nicotinamide adenine dinucleotide phosphate (NADPH) with liver microsomes (0.5 mg/mL) from human (BD Gentest) and Sprague-Dawley rats (BD Gentest). Compounds were incubated in liver microsomes at 1 μM and samples (30 μL) were taken at 0.5, 15, 30, 45, and 60 min time points for analysis by LC-MS/MS. Hepatocyte stability was assessed in duplicate (n = 2) at a working cell density of 0.5 × 10^6 cells/mL with hepatocytes from human (BiolVT), Sprague-Dawley rat (BiolVT), cynomolgus monkey (RILD) or beagle dog (BiolVT). […] The in vitro half-life and intrinsic clearances were determined as previously described.[76]\n(§4) In vitro half-life (in vitro t1/2) was determined from the slope value in [drawing 1] where k was determined by linear regression of the natural logarithm of the remaining percentage of the parent drug vs the incubation time curve."}, "[2]": {"assay": "Plasma protein binding by equilibrium dialysis", "assay_type": "in vitro ADME", "experimental": "(§1) Plasma protein binding and brain tissue binding were determined by Pharmaron, Inc. using the equilibrium dialysis method. […] Following incubation, the samples were analyzed by LC-MS/MS and the concentrations of the compounds were determined in the buffer and plasma solution chambers."}, "P-gp and BCRP": {"test_system": "P-gp and BCRP", "parameters": "method as in ref 17−20", "conditions": "ref 17−20; cited from earlier work"}, "[3]": {"assay": "Plasma protein binding by equilibrium dialysis", "assay_type": "in vitro ADME, mouse", "experimental": "as §1"}, "[4]": {"assay": "Metabolic stability in hepatocytes", "assay_type": "in vitro ADME, Sprague-Dawley rat", "conditions": "rat hepatocytes", "protocol": "as §3, §4"}, "[5]": {"assay": "Lipophilicity, shake-flask", "assay_type": "physicochemical", "conditions": "1-octanol/PBS; 1-octanol and PBS (pH 7.4); read-out: logD7.4", "experimental": "Compound lipophilicity was determined by Pharmaron, Inc. using the shake-flask method with 1-octanol and PBS (pH 7.4). Each compound was assessed in duplicate (n = 2) at 1 μM in a 96-well plate shaken at 25 °C and 2000 rpm for 2 h. Samples were analyzed by liquid chromatography and tandem mass spectrometry (LC-MS/MS)."}, "[6]": {"assay": "Metabolic stability in liver microsomes", "assay_type": "in vitro ADME, human", "conditions": "human LM", "protocol": "as §3, §4"}, "[7]": {"assay": "Metabolic stability in hepatocytes", "assay_type": "in vitro ADME, human", "conditions": "for Remaining Percentages: human hepatocytes", "protocol": "as §3, §4"}, "[8]": {"assay": "Brain tissue binding by equilibrium dialysis", "assay_type": "in vitro ADME", "conditions": "rat", "experimental": "as §1"}, "Plasma stability [9]": {"assay": "Plasma stability", "assay_type": "in vitro ADME, Sprague-Dawley rat", "conditions": "rat plasma", "experimental": "(§2) Assessment of compounds to determine stability in incubations containing plasma of human (Pharmaron) and Sprague-Dawley rat (IPHASE) was performed by Pharmaron, Inc. using the compound […] approach. Compounds were assessed in duplicate (n = 2) and incubated in plasma at 5 μM and samples (50 μL) were taken at 0, 15, 30, 60, and 120 min time points for analysis by LC-MS/MS. Peak area ratios were determined from the extracted ion chromatogram and the percent compound remaining at each time point was calculated by the following equation: [drawing 2] where peak area ratiot min is the peak area ratio of control and test compound at t min and peak area ratio0 min is the peak area ratio of control and test compound at zero time point."}, "[10]": {"parameters": "method as in PMID 33028591", "conditions": "single oral dose of 10 mg/kg in Han Wistar rats ref 18; cited from earlier work"}, "Solubility assay": {"assay": "Solubility assay", "assay_type": "physicochemical", "conditions": "buffer, pH 7.4, aqueous buffer; read-out: Aq. Sol.", "experimental": "Solubility was determined by Pharmaron, Inc. and each compound was assessed in duplicate (n = 2) by adding 15 μL of compound stock solution (10 mM in DMSO) into a 96-well plate along with 485 μL of buffer followed by shaking at 25 °C, 1100 rpm for 2 h. Wells were filtered, and samples (5 μL) were taken followed by dilution with an equal volume of DMSO (5 μL) and 490 μL of aqueous solution. Samples were analyzed by LC-MS/MS."}, "Plasma stability [11]": {"assay": "Plasma stability", "assay_type": "in vitro ADME, human", "conditions": "human plasma", "experimental": "as §2"}, "[12]": {"conditions": "cited from earlier work"}, "[13]": {"conditions": "Sprague-Dawley, rat, rat plasma"}},
  "data": [
    {"molecule": "COc1cc2ncnc(Nc3ccc(F)c(Cl)c3)c2cc1OCCCN1CCOCC1", "note": "[Gefitinib (1), Gefitinib, reference compound]", "values": [
      {"measurement": "Remaining Percentage", "setting": "[1]; +Cofactors, 15 min", "result": 63.13, "unit": "%"},
      {"measurement": "Remaining Percentage", "setting": "[1]; +Cofactors, 30 min", "result": 37.48, "unit": "%"},
      {"measurement": "Remaining Percentage", "setting": "[1]; +Cofactors, 45 min", "result": 25.25, "unit": "%"},
      {"measurement": "Remaining Percentage", "setting": "[1]; +Cofactors, 60 min", "result": 19.26, "unit": "%"},
      {"measurement": "Remaining Percentage", "setting": "[1]; -Cofactors, 60 min", "result": 115.38, "unit": "%"},
      {"measurement": "fraction unbound at 6 h, 5 μM", "setting": "[2]; Sprague-Dawley, rat, plasma, 5 μM, read-out: fu,plasma% / %Unbound", "result": 0.0249},
      {"measurement": "recovery at 6 h, 5 μM", "setting": "[2]; [13]", "result": 105, "unit": "%"},
      {"measurement": "remaining at 6 h, 5 μM", "setting": "[2]; [13]", "result": 105, "unit": "%"},
      {"measurement": "fraction unbound at 6 h, 5 μM", "setting": "[2]; Sprague-Dawley, rat, rat plasma, read-out: %Bound (converted)", "result": 0.0249},
      {"measurement": "recovery at 6 h, 5 μM", "setting": "[2]; human, human plasma", "result": 106, "unit": "%"},
      {"measurement": "remaining at 6 h, 5 μM", "setting": "[2]; human, human plasma", "result": 98.8, "unit": "%"},
      {"measurement": "fraction unbound at 6 h, 5 μM", "setting": "[2]; human, human plasma, read-out: fu,plasma% / %Unbound (converted)", "result": 0.0766},
      {"measurement": "fraction unbound at 6 h, 5 μM", "setting": "[2]; plasma, human, 5 μM, read-out: fu,plasma% / %Unbound (converted)", "result": 0.0766},
      {"measurement": "efflux status against common efflux transporters", "setting": "P-gp and BCRP", "result": "P-gp and BCRP Substrate"},
      {"measurement": "recovery at 6 h, 5 μM", "setting": "[3]; CD-1, mouse, mouse plasma", "result": 99.4, "unit": "%"},
      {"measurement": "remaining at 6 h, 5 μM", "setting": "[3]; CD-1, mouse, mouse plasma", "result": 98, "unit": "%"},
      {"measurement": "fraction unbound at 6 h, 5 μM", "setting": "[3]; CD-1, mouse, mouse plasma, read-out: %Bound (converted)", "result": 0.0781},
      {"measurement": "fraction unbound at 6 h, 5 μM", "setting": "[3]; CD-1, plasma, mouse, 5 μM, read-out: fu,plasma% / %Unbound", "result": 0.0781},
      {"measurement": "Remaining Percentages", "setting": "[4]; 15 min", "result": 66.86, "unit": "%"},
      {"measurement": "Remaining Percentages", "setting": "[4]; 30 min", "result": 59.92, "unit": "%"},
      {"measurement": "Remaining Percentages", "setting": "[4]; 60 min", "result": 39.44, "unit": "%"},
      {"measurement": "Remaining Percentages", "setting": "[4]; 90 min", "result": 21.69, "unit": "%"},
      {"measurement": "Remaining Percentages", "setting": "[4]; 120 min", "result": 13.94, "unit": "%"},
      {"measurement": "logD at 2 h, 1 µM", "setting": "[5]", "result": 3.7},
      {"measurement": "Remaining Percentage", "setting": "[6]; +Cofactors, 15 min", "result": 39.75, "unit": "%"},
      {"measurement": "Remaining Percentage", "setting": "[6]; +Cofactors, 30 min", "result": 19.60, "unit": "%"},
      {"measurement": "Remaining Percentage", "setting": "[6]; +Cofactors, 45 min", "result": 12.23, "unit": "%"},
      {"measurement": "Remaining Percentage", "setting": "[6]; +Cofactors, 60 min", "result": 8.14, "unit": "%"},
      {"measurement": "Remaining Percentage", "setting": "[6]; -Cofactors, 60 min", "result": 100.00, "unit": "%"},
      {"measurement": "Remaining Percentages", "setting": "[7]; 15 min", "result": 97.55, "unit": "%"},
      {"measurement": "Remaining Percentages", "setting": "[7]; 30 min", "result": 94.76, "unit": "%"},
      {"measurement": "Remaining Percentages", "setting": "[7]; 60 min", "result": 73.38, "unit": "%"},
      {"measurement": "Remaining Percentages", "setting": "[7]; 90 min", "result": 50.47, "unit": "%"},
      {"measurement": "Remaining Percentages", "setting": "[7]; 120 min", "result": 39.53, "unit": "%"},
      {"measurement": "half-life at 2 h, 1 µM", "setting": "[7]; human, hepatocytes, read-out: HEP t1/2", "result": 1.39, "unit": "h"},
      {"measurement": "recovery at 6 h, 5 μM", "setting": "[8]; Sprague-Dawley (SD), rat brain homogenate", "result": 99.7, "unit": "%"},
      {"measurement": "fraction unbound at 6 h, 5 μM", "setting": "[8]; Sprague-Dawley, brain homogenate, read-out: fu,brain% / %Unboundbrain", "result": 0.006},
      {"measurement": "remaining at 6 h, 5 μM", "setting": "[8]; Sprague-Dawley, rat brain homogenate", "result": 105, "unit": "%"},
      {"measurement": "fraction unbound at 6 h, 5 μM", "setting": "[8]; Sprague-Dawley, rat brain homogenate, read-out: %Boundbrain (converted)", "result": 0.006},
      {"measurement": "Remaining Percentages", "setting": "Plasma stability [9]; 15 min", "result": 100.11, "unit": "%"},
      {"measurement": "Remaining Percentages", "setting": "Plasma stability [9]; 30 min", "result": 98.28, "unit": "%"},
      {"measurement": "Remaining Percentages", "setting": "Plasma stability [9]; 60 min", "result": 95.04, "unit": "%"},
      {"measurement": "Remaining Percentages", "setting": "Plasma stability [9]; 120 min", "result": 93.66, "unit": "%"},
      {"measurement": "t1/2", "setting": "Plasma stability [9]; ∞ = no degradation", "result": "∞"},
      {"measurement": "Kp,uu (AUC0−16h)", "setting": "[10]", "result": 0.0092},
      {"measurement": "solubility kinetic at 2 h", "setting": "Solubility assay", "result": 4, "unit": "µM"},
      {"measurement": "Remaining Percentages", "setting": "Plasma stability [11]; 15 min", "result": 103.40, "unit": "%"},
      {"measurement": "Remaining Percentages", "setting": "Plasma stability [11]; 30 min", "result": 103.92, "unit": "%"},
      {"measurement": "Remaining Percentages", "setting": "Plasma stability [11]; 60 min", "result": 101.33, "unit": "%"},
      {"measurement": "Remaining Percentages", "setting": "Plasma stability [11]; 120 min", "result": 104.45, "unit": "%"},
      {"measurement": "t1/2", "setting": "Plasma stability [11]; ∞ = no degradation", "result": "∞"}
    ]},
    {"molecule": "hydroxylamine", "values": [
      {"measurement": "pKa", "setting": "[12]", "result": 5.9}
    ]}
  ]
}
